# Measured values as given in patent US4520007A, “Anti-coagulants of the 4-hydroxycoumarin type and rodenticidal compositions (baits) comprising such anti-coagulants” (priority 1982, dated 1985).
# Entries after “also recorded” stand apart in the source; their conditions may differ. Where two headings read alike, the source gives them in different places.
# Tests used:
# [1] = system: Prothrombin time (blood clotting); experiment: Prothrombin time ED50 (3 days after intraperitoneal injection); format: in vivo, rat (male Wistar strain); settings: for ED50: Rattus norvegicus, S100, ip, 72 h, read-out: 3-day ED50 (Prothrombin time ED50); for anticoagulant activity (comparison in words): compared with Brodifacoum or Difenacoum
# Protocol: Compounds in accordance with the invention, and other substituted 4-hydroxy coumarin compounds not within the invention, including Brodifacoum, Difenacoum and Warfarin, were tested as described in the following examples. The Prothrombin time ED50 value is the most reliable method for measuring anticoagulant activity. The LD50 value is of significance in regard to the potency of the compound as a rodenticide.
# A preliminary test was carried out to reliably rank the potential rodenticides in order of anticogulant potency.
# The method used involved measurement of the Prothrombin time (a measure of blood clotting properties) which is based on that described in a paper by Quick, A. J., Stanley-Brown, M. and Bankoft. F. W. entitled "Study of Coagulation Defect in Haemophilia and in Jaundice" in American Journal of Medical Science, Vol. 190, pages 501-511, 1935. The compounds were dissolved in a 1:9 v/v mixture of triethanolamine and polyethylene glycol 200 Mol Wt and serially diluted to give appropriate doses in 1 ml per 1 kg of animal body weight. The doses were injected into the test animals by the interperitoneal route. Three days after injection, blood was withdrawn by cardiac puncture whilst the test animals (200-250 g Wistar strain male rats) were held under "Halothane" anaesthesia.
# Three rats were used in each test of a given compound, and three prothrombin time determinations were carried out on each blood sample. Prothrombin times were determined using the modified one-stage method of Quick. The percentage extension time of each prothrombin time was determined by assigning 0% extension time to an arbitary prothrombin resting time of 12 seconds, and 100% extension time to a prothrombin time elevated to an arbitrary 212 seconds. Results were plotted on log-probability graph paper, the best-line fitted, and the prothrombin the ED50 read from the graph.
# vitamin K reductase = settings: literature: Fasco et al 1982; Park et al 1982; cited from earlier work
# [2] = system: vitamin K 2, 3-epoxide reductase; settings: literature: Fasco et al 1982; Park et al 1982; cited from earlier work
# [3] = system: Warfarin-resistant rodents; settings: prior art; cited from earlier work
# male rats, Wistar strain = experiment: 5 day no-choice bait feeding test, deaths up to 21 days; format: in vivo, rat (male; settings: 5 day no-choice feed
# Protocol: Appropriate amounts of Compounds 1, and 3 and 5 were dissolved in acetone, serially diluted, and slurried onto rolled oats to give final bait concentrations of 5.0, 2.0, 0.5 and 0.2 ppm for Compound 1 and 20.0, 10.0, […] and 2.0 ppm for Compounds 3 and 5. Each bait was offered as a 5 day no-choice feed to groups of five individually caged male rats, Wistar strain.
# [4] = system: female rats Homozygous--Resistant Welsh strain; experiment: 24h no-choice bait feeding test, resistant rats, deaths up to 21 days; format: in vivo, rat (female; settings: 24h no-choice feed
# Protocol: (§1) Appropriate amounts of Compounds 1,2,3 and 5 were dissolved in acetone and slurried onto rolled oats to give final bait concentrations of 20 ppm for Compounds 1 and 2; and 50 ppm for Compounds 3 and 5. Each bait was offered as a 24h no-choice feed to groups of five individually caged female rats Homozygous--Resistant Welsh strain; and similarly to groups of five individually caged male and female mice (Cambridge Cream Resistant strain).
# [5] = system: male and female mice (Cambridge Cream Resistant strain); experiment: 24h no-choice bait feeding test, resistant mice, deaths up to 21 days; format: in vivo, mouse (Cambridge Cream Resistant strain); settings: 24h no-choice feed
# Protocol: as §1
# [6] = male Wistar rats 200-250 g, single intraperitoneal injection, blood taken three days after injection, ED50 = 50% extension of prothrombin time (0% = 12 s, 100% = 212 s)
Structure (SMILES),"ED50 [1, 6]",also measured
"O=c1oc2ccccc2c(O)c1[C@@H]1C[C@@H](c2ccc(OCc3ccccc3)cc2)Cc2ccccc21 (relative stereo) [Compound 14, reference compound]",4.3 mg/kg,anticoagulant activity (comparison in words) [1]: activity much lower than similarly structured Difenacourm
CC(=O)CC(c1ccccc1)c1c(O)c2ccccc2oc1=O (stereo not drawn) [Warfarin],5.2 mg/kg,"inhibiting ability, vitamin K reductase (vitamin K reductase): have this inhibiting ability; inhibiting ability, vitamin K 2,3-epoxide reductase [2]: have this inhibiting ability"
N#Cc1ccc(COc2ccc(C3Cc4ccccc4C(c4c(O)c5ccccc5oc4=O)C3)cc2)cc1 (stereo not drawn) [Compound 12],0.8 mg/kg,–
"CCCCCCC1Cc2ccccc2C(c2c(O)c3ccccc3oc2=O)C1 (stereo not drawn) [Compound 30, reference compound]",14 mg/kg,–
"O=c1oc2ccccc2c(O)c1[C@@H]1C[C@@H](c2ccc(-c3ccc(C(F)(F)F)cc3)cc2)Cc2ccccc21 (relative stereo) [Compound 24, 3[3-(4'-trifluoromethyl-4-yl)-1,2,3,4-tetrahydro-1-naphthyl]-4hydroxycoumarin]",0.47 mg/kg,–
O=c1oc2ccccc2c(O)c1C1CC(c2ccc(CCc3ccc(Br)cc3)cc2)Cc2ccccc21 (stereo not drawn) [Compound 17],0.37 mg/kg,–
O=c1oc2ccccc2c(O)c1C1CC(c2ccc(OCc3ccc(C(F)(F)F)cc3)cc2)Cc2ccccc21 (stereo not drawn) [Compound 13],0.32 mg/kg,–
N#Cc1ccc(Oc2ccc(C3Cc4ccccc4C(c4c(O)c5ccccc5oc4=O)C3)cc2)cc1 (stereo not drawn) [Compound 10],0.41 mg/kg,–
O=c1oc2ccccc2c(O)c1C1CC(c2ccc(-c3ccc(Br)cc3)o2)Cc2ccccc21 (stereo not drawn) [Compound 8],0.78 mg/kg,–
N#Cc1ccc(CCc2ccc(C3Cc4ccccc4C(c4c(O)c5ccccc5oc4=O)C3)cc2)cc1 (stereo not drawn) [Compound 19],0.9 mg/kg,–
O=c1oc2ccccc2c(O)c1C1CC(c2ccc(/C=C/c3ccccc3)cc2)Cc2ccccc21 (stereo not drawn) [Compound 22],0.8 mg/kg,–
"O=c1oc2ccccc2c(O)c1C1CC(c2c(Cl)cccc2Cl)Cc2ccccc21 (stereo not drawn) [Compound 26, reference compound]",10 mg/kg,–
"O=c1oc2ccccc2c(O)c1C1CC(CCCc2ccccc2)Cc2ccccc21 (stereo not drawn) [Compound 29, reference compound]",14.1 mg/kg,–
O=c1oc2ccccc2c(O)c1C1CC(c2ccc(-c3ccccc3)cc2)Cc2ccccc21 (stereo not drawn) [Difenacoum],–,"ED50 [1]: 0.56 mg/kg; activity relative to Brodifacoum ([1]; rat, in vivo): about 36%; inhibiting ability, vitamin K reductase (vitamin K reductase): have this inhibiting ability; inhibiting ability, vitamin K 2,3-epoxide reductase [2]: have this inhibiting ability; effectiveness against Warfarin-resistant rodents [3]: effective against Warfarin-resistant rodents"
"O=c1oc2ccccc2c(O)c1C1CC(c2ccccc2-c2ccc(C(F)(F)F)cc2)Cc2ccccc21 (stereo not drawn) [Compound 27, reference compound]",> 10 mg/kg,–
"O=c1oc2ccccc2c(O)c1C1CC(c2ccc3c(c2)CCCC3)Cc2ccccc21 (stereo not drawn) [Compound 28, reference compound]",10 mg/kg,–

Structure (SMILES),"ED50 [1, 6]",also measured
O=c1oc2ccccc2c(O)c1C1CC(c2ccc(OCc3ccc(F)cc3)cc2)Cc2ccccc21 (stereo not drawn) [Compound 15],0.47 mg/kg,–
N#Cc1ccc(-c2ccc([C@H]3Cc4ccccc4[C@H](c4c(O)c5ccccc5oc4=O)C3)cc2)cc1 (relative stereo) [Compound 1],0.45 mg/kg,"Deaths up to 21 days (male rats, Wistar strain; bait 0.2 ppm): 0/5; Deaths up to 21 days (male rats, Wistar strain; bait 0.5 ppm): 5/5; Deaths up to 21 days (male rats, Wistar strain; bait 2.0 ppm): 5/5; Deaths up to 21 days (male rats, Wistar strain; bait 5.0 ppm): 5/5; Death up to 21 days, rats ([4]; bait 20.0 ppm): 5/5; Death up to 21 days, mice ([5]; bait 20.0 ppm): 5/5"
N#Cc1ccc(C2Cc3ccccc3C(c3c(O)c4ccccc4oc3=O)C2)cc1 (stereo not drawn) [Compound 7],0.54 mg/kg,–
O=c1oc2ccccc2c(O)c1C1CC(c2ccc(-c3ccc(Br)cc3)cc2)Cc2ccccc21 (stereo not drawn) [Brodifacoum],0.28 mg/kg,"anticoagulant activity (comparison in words) [1]: particularly notable activity; inhibiting ability, vitamin K reductase (vitamin K reductase): have this inhibiting ability; inhibiting ability, vitamin K 2,3-epoxide reductase [2]: have this inhibiting ability; effectiveness against Warfarin-resistant rodents [3]: effective against Warfarin-resistant rodents; also recorded: effectiveness against Warfarin-resistant rodents"
N#Cc1ccc(-c2ccc([C@@H]3Cc4ccccc4[C@H](c4c(O)c5ccccc5oc4=O)C3)cc2)cc1 (relative stereo) [Compound 2],0.31 mg/kg,"Death up to 21 days, rats ([4]; bait 20.0 ppm): 5/5; Death up to 21 days, mice ([5]; bait 20.0 ppm): 4/5"
O=c1oc2ccccc2c(O)c1C1CC(c2ccc(Oc3ccc(C(F)(F)F)cc3)cc2)Cc2ccccc21 (stereo not drawn) [Compound 20],0.23 mg/kg,anticoagulant activity (comparison in words) [1]: activity greater than Brodifacoum
"O=c1oc2ccccc2c(O)c1[C@@H]1C[C@H](c2ccc(-c3ccc(C(F)(F)F)cc3)cc2)Cc2ccccc21 (relative stereo) [Compound 25, 3[3-(4'-trifluoromethyl-4-yl)-1,2,3,4-tetrahydro-1-naphthyl]-4hydroxycoumarin]",0.46 mg/kg,–
O=c1oc2ccccc2c(O)c1C1CC(c2ccc([N+](=O)[O-])cc2)Cc2ccccc21 (stereo not drawn) [Compound 9],0.8 mg/kg,–
O=c1oc2ccccc2c(O)c1C1CC(Cc2ccc(Cl)cc2Cl)Cc2ccccc21 (stereo not drawn) [Compound 6],1.8 mg/kg,–
O=c1oc2ccccc2c(O)c1C1CC(c2ccc(CCc3ccc(Cl)cc3)cc2)Cc2ccccc21 (stereo not drawn) [Compound 18],0.27 mg/kg,anticoagulant activity (comparison in words) [1]: activity greater than Brodifacoum
O=c1oc2ccccc2c(O)c1C1CC(c2ccc(OCc3ccc(Br)cc3)cc2)Cc2ccccc21 (stereo not drawn) [Compound 11],0.27 mg/kg,anticoagulant activity (comparison in words) [1]: activity greater than Brodifacoum
O=c1oc2ccccc2c(O)c1C1CC(c2ccc(C(F)(F)F)cc2)Cc2ccccc21 (stereo not drawn) [Compound 3],0.59 mg/kg,"Deaths up to 21 days (male rats, Wistar strain; bait 2.0 ppm): 5/5; Deaths up to 21 days (male rats, Wistar strain; bait 5.0 ppm): 5/5; Deaths up to 21 days (male rats, Wistar strain; bait 10.0 ppm): 5/5; Deaths up to 21 days (male rats, Wistar strain; bait 20.0 ppm): 5/5; Death up to 21 days, rats ([4]; bait 50.0 ppm): 5/5; Death up to 21 days, mice ([5]; bait 50.0 ppm): 3/5"
O=c1oc2ccccc2c(O)c1C1CC(c2ccc(OCc3ccc(Cl)c(Cl)c3)cc2)Cc2ccccc21 (stereo not drawn) [Compound 16],0.43 mg/kg,–
O=c1oc2ccccc2c(O)c1C1CC(c2ccc(/C=C/c3ccc(Br)cc3)cc2)Cc2ccccc21 (stereo not drawn) [Compound 21],0.8 mg/kg,–
O=c1oc2ccccc2c(O)c1C1CC(c2ccc(CCCc3ccc(Cl)cc3)cc2)Cc2ccccc21 (stereo not drawn) [Compound 23],0.23 mg/kg,anticoagulant activity (comparison in words) [1]: activity greater than Brodifacoum
